How the values were obtained:
Androgen receptor [1] = target: T1, Androgen receptor (Homo sapiens, UniProt P10275, T878A); assay: biochemical
Androgen receptor [2] = target: T2, Androgen receptor (Homo sapiens, UniProt P10275); assay: Binding affinity for androgen receptor in human MDA-453 cells
T2 sequence (P10275 whole entry): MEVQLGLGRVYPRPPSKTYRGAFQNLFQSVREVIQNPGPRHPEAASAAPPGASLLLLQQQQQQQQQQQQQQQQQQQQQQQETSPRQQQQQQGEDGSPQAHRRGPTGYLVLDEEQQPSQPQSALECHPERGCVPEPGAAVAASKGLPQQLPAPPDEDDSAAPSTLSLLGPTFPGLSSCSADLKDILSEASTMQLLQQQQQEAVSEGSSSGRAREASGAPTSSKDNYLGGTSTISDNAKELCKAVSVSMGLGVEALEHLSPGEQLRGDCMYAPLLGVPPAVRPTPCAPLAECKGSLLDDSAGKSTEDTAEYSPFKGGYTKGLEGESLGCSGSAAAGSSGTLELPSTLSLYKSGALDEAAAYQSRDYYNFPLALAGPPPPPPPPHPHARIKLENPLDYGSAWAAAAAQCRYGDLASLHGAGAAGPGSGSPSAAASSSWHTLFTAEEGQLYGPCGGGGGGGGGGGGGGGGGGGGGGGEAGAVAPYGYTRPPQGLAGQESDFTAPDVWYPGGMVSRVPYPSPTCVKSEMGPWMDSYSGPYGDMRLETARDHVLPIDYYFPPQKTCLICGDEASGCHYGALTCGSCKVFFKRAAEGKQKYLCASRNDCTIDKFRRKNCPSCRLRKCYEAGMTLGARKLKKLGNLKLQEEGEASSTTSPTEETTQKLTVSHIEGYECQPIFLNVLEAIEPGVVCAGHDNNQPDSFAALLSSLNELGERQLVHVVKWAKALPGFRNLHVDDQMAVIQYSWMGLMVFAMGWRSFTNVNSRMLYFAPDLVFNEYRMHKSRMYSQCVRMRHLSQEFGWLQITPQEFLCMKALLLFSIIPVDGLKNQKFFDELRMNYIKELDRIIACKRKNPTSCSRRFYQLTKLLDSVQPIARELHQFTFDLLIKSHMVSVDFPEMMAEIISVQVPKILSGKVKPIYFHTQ

Androgen receptor [3] = target: T1, Androgen receptor; assay: Inhibition of mutant T877A Androgen receptor in human LNCaP cells; type: cell-based
Androgen receptor [4] = target: T2, Androgen receptor
Description: Inhibition of androgen receptor in human MDA-453 cells

Androgen receptor [5] = target: T1, Androgen receptor; assay: Inhibition of mutant T877A Androgen receptor in human LNCaP cells; Ag means agonist; type: functional, cell-based
Androgen receptor [6] = target: T2, Androgen receptor; assay: Inhibition of androgen dependent human prostate cancer cell […] proliferation; Ag means agonist; type: functional, cell-based; conditions: cancer cell lines

T1 sequence (P10275 whole entry T878A): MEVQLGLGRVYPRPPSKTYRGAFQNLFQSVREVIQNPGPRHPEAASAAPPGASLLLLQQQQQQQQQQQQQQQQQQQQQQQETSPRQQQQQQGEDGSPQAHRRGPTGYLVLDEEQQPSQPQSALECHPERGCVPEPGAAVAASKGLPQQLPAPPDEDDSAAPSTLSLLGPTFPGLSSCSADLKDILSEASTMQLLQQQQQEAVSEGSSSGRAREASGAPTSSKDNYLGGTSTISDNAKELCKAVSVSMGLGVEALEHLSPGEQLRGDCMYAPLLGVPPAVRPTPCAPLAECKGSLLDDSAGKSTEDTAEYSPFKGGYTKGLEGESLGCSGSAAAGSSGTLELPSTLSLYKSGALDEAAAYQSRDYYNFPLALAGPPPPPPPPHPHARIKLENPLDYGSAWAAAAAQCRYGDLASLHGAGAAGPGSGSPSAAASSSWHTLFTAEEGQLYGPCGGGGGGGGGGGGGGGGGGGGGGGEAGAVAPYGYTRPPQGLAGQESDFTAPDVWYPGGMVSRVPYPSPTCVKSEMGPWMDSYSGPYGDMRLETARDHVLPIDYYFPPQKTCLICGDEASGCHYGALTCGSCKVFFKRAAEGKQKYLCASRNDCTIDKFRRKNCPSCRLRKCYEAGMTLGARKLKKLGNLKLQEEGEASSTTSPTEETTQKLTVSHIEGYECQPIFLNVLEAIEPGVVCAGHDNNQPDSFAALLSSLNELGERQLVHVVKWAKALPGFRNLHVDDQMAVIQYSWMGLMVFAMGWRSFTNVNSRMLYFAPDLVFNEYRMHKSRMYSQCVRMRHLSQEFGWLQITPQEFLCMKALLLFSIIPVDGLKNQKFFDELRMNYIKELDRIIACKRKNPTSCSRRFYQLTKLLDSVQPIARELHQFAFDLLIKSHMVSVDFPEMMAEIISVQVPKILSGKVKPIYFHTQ

SMILES: CN1C(=O)C2C=CC1[C@@H]1C(=O)N(c3ccc([N+](=O)[O-])c4ccccc34)C(=O)[C@H]21 (stereo not given in full)
- Ki (Androgen receptor [1]): 115 nM
- Ki (Androgen receptor [2]): > 5000 nM
- IC50 (Androgen receptor [3]): 631 nM
- IC50 (Androgen receptor [4]): 4030 nM

SMILES: CC(C)(O)C(=O)Nc1ccc([N+](=O)[O-])c(C(F)(F)F)c1 [HYDROXYFLUTAMIDE]
- IC50 (Androgen receptor [5]): Agonist
- IC50 (Androgen receptor [6]): Agonist

SMILES: O=C1[C@@H]2C3C=CC(C3)[C@@H]2C(=O)N1c1ccc(Cl)c(Cl)c1
- Ki (Androgen receptor [1]): 6 nM
- Ki (Androgen receptor [2]): 158 nM
- IC50 (Androgen receptor [3]): 41 nM
- IC50 (Androgen receptor [4]): 307 nM

SMILES: O=C1[C@@H]2C3C=CC(CC3)[C@@H]2C(=O)N1c1ccc([N+](=O)[O-])c2ccccc12
- Ki (Androgen receptor [1]): 0.5 nM
- IC50 (Androgen receptor [4]): 224 nM
- IC50 (Androgen receptor [6]): Agonist

SMILES: O=C1[C@@H]2C3C=CC(CC3)[C@@H]2C(=O)N1c1cccc(C(F)(F)F)c1
- Ki (Androgen receptor [1]): 19 nM
- IC50 (Androgen receptor [3]): 66 nM
- IC50 (Androgen receptor [4]): 196 nM

SMILES: Cc1cc(N2C(=O)[C@@H]3C4C=CC(CC4)[C@@H]3C2=O)ccc1Br
- Ki (Androgen receptor [1]): 0.01 nM
- IC50 (Androgen receptor [4]): 68 nM
- IC50 (Androgen receptor [5]): Agonist
- IC50 (Androgen receptor [6]): Agonist

SMILES: O=C1[C@@H]2C3C=CC(CCC3)[C@@H]2C(=O)N1c1ccc([N+](=O)[O-])c2ccccc12
- IC50 (Androgen receptor [4]): 49 nM
- IC50 (Androgen receptor [5]): Agonist
- IC50 (Androgen receptor [6]): Agonist

SMILES: Cc1cc(N2C(=O)[C@@H]3C4C=CC([C@H](O)[C@@H]4O)[C@@H]3C2=O)ccc1Br
- Ki (Androgen receptor [1]): 33 nM
- Ki (Androgen receptor [2]): 432 nM
- IC50 (Androgen receptor [3]): 59 nM
- IC50 (Androgen receptor [4]): 5240 nM
- IC50 (Androgen receptor [6]): Agonist

SMILES: O=C1[C@@H]2C3C=CC([C@H]4C[C@@H]34)[C@@H]2C(=O)N1c1ccc([N+](=O)[O-])c2ccccc12
- Ki (Androgen receptor [2]): 3 nM
- IC50 (Androgen receptor [4]): 786 nM
- IC50 (Androgen receptor [5]): Agonist
- IC50 (Androgen receptor [6]): Agonist

SMILES: O=C1[C@@H]2C3CCC(C3)[C@@H]2C(=O)N1c1ccc([N+](=O)[O-])c(C(F)(F)F)c1
- IC50 (Androgen receptor [5]): Agonist
- IC50 (Androgen receptor [6]): Agonist

SMILES: O=C1[C@@H]2C3C=CC([C@H]4C[C@@H]34)[C@@H]2C(=O)N1c1cccc(C(F)(F)F)c1
- Ki (Androgen receptor [1]): 9 nM
- IC50 (Androgen receptor [3]): 30 nM
- IC50 (Androgen receptor [4]): 1700 nM

SMILES: O=C1[C@@H]2C3CCCC(CC3)[C@@H]2C(=O)N1c1cccc(C(F)(F)F)c1
- Ki (Androgen receptor [1]): 20 nM
- IC50 (Androgen receptor [3]): 23 nM
- IC50 (Androgen receptor [4]): 658 nM

SMILES: O=C1[C@@H]2C3C=CC(CC3)[C@@H]2C(=O)N1c1ccc(Cl)c(Cl)c1
- Ki (Androgen receptor [1]): 28 nM
- Ki (Androgen receptor [2]): 83 nM
- IC50 (Androgen receptor [4]): 150 nM
- IC50 (Androgen receptor [5]): Agonist
- IC50 (Androgen receptor [6]): Agonist

Reference: ChEMBL document CHEMBL1142826, “Structure based approach to the design of bicyclic-1H-isoindole-1,3(2H)-dione based androgen receptor antagonists” (Bioorg Med Chem Lett, 2005)
